From patent US20080311589A1, “METHOD OF HIGH-THROUGHPUT SCREENING OF MOLECULES AND COMPOUNDS FOR THEIR EFFECTS ON BIOLOGICAL AND CHEMICAL PROCESSES” (priority 1999, published 2008)
Entries after “also recorded” stand apart in the source; their conditions may differ. Peptide text beside a SMILES is read from it.

How the values were obtained:
[1] = system: A549 human lung carcinoma cells; test: phosphonucleolin cytoblot, suppressors of G2-arresting agents; type: cell-based; details: for prevention of nocodazole mitotic arrest: simultaneous addition with 250 nM nocodazole, 14 μM ICRF-193, 20 μM roscovitine
Procedure: (§1) FIG. 11. Cytoblots can be used to screen for small molecule suppressors of anti-proliferative agents using the presence of phosphonucleolin, and for small molecules that induce exit from mitosis using the absence of phosphonucleolin. […] A549 human lung carcinoma cells were seeded at a density of 4000 cells in 40 μL of DMEM+ in each well of an opaque 384-well plate and incubated for 24 hours at 37° C. with 5% CO2. […] Cells were then incubated for 18 hours at 37° C. with 5% CO2 and a phosphonucleolin cytoblot was performed. (c) HeLaS3 cells were seeded at a density of 4000 cells in 40 μL of DMEM+ in each well of an opaque 384-well plate and incubated for 24 hours at 37° C. with 5% CO2. Cells were either left untreated or treated with 554 nM nocodazole for 14 hours to arrest cells in mitosis. Roscovitine was then added to the final concentrations indicated in a final volume of 50 μL and cells were incubated for 4 hours at 37° C. with 5% CO2. Finally, BrdU was added to a final concentration of 10 μM to those wells that were assayed for BrdU incorporation, and the cells incubated for an additional 6 hours at 37° C. with 5% CO2. BrdU and phosphonucleolin cytoblots were performed. […] HeLa cells were seeded at a density of 4000 cells per well in 40 μL of DMEM+ in each well of an opaque 384 well plate and incubated overnight at 37° C. with 5% CO2. Cells were then treated with either an equivalent amount of DMSO or nocodazole to a final concentration of 415 nM and the cells incubated for an additional 14 hours at 37° C. with 5% CO2. Roscovitine was then added to the final concentrations indicated and final volume of 50 μL and cells incubated for 4 hours 37° C. with 5% CO2. Finally, BrdU was added to a final concentration of 10 μM to those wells the be assayed for BrdU incorporation and the cells incubated for an additional 6 hours at 37° C. with 5% CO2. BrdU and TG-3 cytoblots were performed (see Protocols). Wells are shown magnified 4×. […] A549 human lung carcinoma cells were seeded at a density of 4000 cells in 40 uL of DMEM+ in each well of an opaque 384 well plate and incubated for 24 hours at 37° C. with 5% CO2. […] Cells were then incubated for 18 hours at 37° C. with 5% CO2 and a TG-3 cytoblot performed (see Protocol).
These purine analogs are known to be non-specific competitive inhibitors of 5′-adenosine triphosphate binding and therefore are likely to inhibit a wide range of kinases in the cell.

[2] = system: Mv1Lu mink lung epithelial cells; test: 384 well anti-BrdU cytoblot; type: cell-based; details: 384-well plate; antiproliferative agents 24 hours, then 10 μM BrdU 16 hours (FIG. 2)
Source text: FIG. 1. An immunodetection assay for DNA synthesis in high density arrays of mammalian cells. (a) Cartoon depiction of an anti-BrdU cytoblot. The thymine analog 5-bromodeoxyuridine (BrdU) is incorporated into the DNA of cells that are actively replicating their DNA. The cells are in the well, and BrdU is detected with a two step antibody binding procedure. The second antibody is conjugated to the enzyme horseradish peroxidase. In the presence of the chemiluminescent substrate luminol as well as hydrogen peroxide, light of wavelength 428 nm is generated. The light emission can be detected by exposing the plate to film. (b) A cytoblot can detect TGF-β's ability to prevent BrdU incorporation in mink lung epithelial cells. 2000 Mv1Lu mink lung epithelial cells were seeded in each well of a white, opaque 384 well plate. The cells were seeded in the indicated concentrations of TGF-β in 50 μL of DMEM with 1% fetal bovine serum (FBS), 100 units/mL penicillin G sodium, 100 μg/mL streptomycin sulfate and 100 μM each of the amino acids alanine, aspartic acid, glutamine, glycine, asparagine and proline (referred to throughout as 1% mink medium) and allowed to incubate at 37° C. with 5% CO2. After 16 hours, 5.5 μL of 100 μM BrdU in 1% mink medium was added to each well, for a final concentration of 10 μM BrdU. The cells were incubated at 37° C. with 5% CO2 for an additional 16 hours and then an anti-BrdU cytoblot protocol was performed (see protocol). Wells shown are magnified 4×.
FIG. 2. A cytoblot can detect the ability of numerous antiproliferative agents to inhibit BrdU incorporation. 2000 Mv1Lu mink lung epithelial cells were seeded in each well of a white, opaque 384 well plate. The cells were seeded in 40 μL of 1% mink media and immediately 40 μL of 2× stocks of the reagents shown was added to each well and the cells were allowed to incubate at 37° C. with 5% CO2. After 24 hours, 9 μL of 100 μM BrdU in 1% mink medium was added to each well, for a final concentration of 10 μM BrdU. The cells were incubated at 37° C. with 5% CO2 for an additional 16 hours and then an anti-BrdU cytoblot protocol was performed (see protocol). Wells shown are magnified 2.5×.
The ability of the cytoblot assay to detect changes in DNA synthesis was tested by measuring the incorporation of 5-bromodeoxyuridine (BrdU, Sigma Corporation, St. Louis, Mo., Cat.# B9285) into DNA in the presence or absence of the anti-mitogen transforming growth factor β (TGF-β). Mink lung cells, which are responsive to TGF-β, were seeded into each well of an opaque, white 384-well plate. The cells were subsequently treated with varying concentrations of TGF-β for 16 hours and then with 10 μM BrdU for 16 hours. […] The following protocols provide experimental detail. […]

HeLaS3 cells = test: BrdU and phosphonucleolin cytoblots in nocodazole-arrested HeLa cells; type: cell-based, human
Procedure: as §1
It should also be possible to find small molecules that induce exit from mitosis, resulting in a reduction in phosphonucleolin levels. As the nocodazole-induced arrest of cells in mitosis requires cyclin-dependent kinase (CDK) activity for the activation of the spindle assembly checkpoint, inhibition of CDK activity should suppress nocodazole-induced mitotic arrest (FIG. 11a). […]

[3] = system: hyperacetylated histone H4; test: 384 well anti-acetylated histone H4 cytoblot; type: cell-based, human; details: A549 cells; 300 nM trichostatin A, 100 nM trapoxin, 24 hours
Procedure: FIG. 5. An immunodetection assay for the accumulation of hyperacetylated histone H4 in high density arrays of mammalian cells. A549 human lung carcinoma cells were seeded at a density of 4000 cells in 40 μL of DMEM+ in each well of an opaque 384 well plate and incubated overnight at 37° C. with 5% CO2. Cells were either untreated, washed once and treated with 0.5% serum, 80 pM TGF-β, 300 nM trichostatin A, 100 nM trapoxin or 250 nM nocodazole and incubated for 24 hours at 37° C. with 5% CO2 in a final volume of 50 μL. A cytoblot was performed (see Protocol) and the presence of the hyperacetylated form of histone H4 was detected using a two step antibody binding procedure using an anti-acetylated H4 antibody and a secondary antibody conjugated to the enzyme horseradish peroxidase. Wells are shown magnified 25×.
Any post-translational modification that can be recognized by an antibody (or ligand) may be used in a cytoblot screen. […] In addition, antibodies against the phosphorylated form of nucleolin (FIG. 6a) or histone H3 (FIG. 6b) were used to detect the presence of phosphonucleolin or phosphohistone H3 respectively, both of which server as biochemical markers of the mitotic state of cells (Anderson et al. Experimental Cell Research 238: 498-502 1998; Vincent et al. J. Cell. Biol. 132:413-425. 1996)). The following protocol provides experimental detail. […]

[4] = system: mink lung epithelial cells; test: BrdU cytoblot assay for S-phase progression; type: cell-based
Source text: BRDU CYTOBLOT ASSAY: The BrdU cytoblot assay for S-phase progression was described previously by Stockwell et al. (Chem. Biol. 6:71, 1999; see also, U.S. Patent Application Ser. No. 60/094,305, incorporated herein by reference).
Compounds that mimic TGFβ activity would be expected to be capable of inducing cell cycle arrest or apoptosis, and in particular to block DNA replication, in responding cells. We therefore used an S-phase progression cytoblot assay to test whether our compounds could inhibit 5-bromodeoxyuridine (BrdU) incorporation into mink epithelial cells. […] Both compounds were therefore classified as true TGFβ mimics.

## Nc1ncc2[nH]cnc2n1 [2-aminopurine]
[1]; 1 mM 2-aminopurine or 2 mM caffeine with ICRF-193 and 250 nM nocodazole, 18 hours
  suppression of ICRF-193-induced G2 arrest: prevented the arrest in response to ICRF-193; also recorded: suppress a DNA damage-independent topoisomerase inhibitor-induced G2-checkpoint arrest

## COC(=O)Nc1nc2ccc(C(=O)c3cccs3)cc2[nH]1 [nocodazole]
[2]
  BrdU incorporation: effectively prevent BrdU incorporation
HeLaS3 cells; HeLa cells, nocodazole 415 nM
  accumulation of phosphonucleolin: induces the accumulation of phosphonucleolin
  incorporation of BrdU: prevents the incorporation of BrdU
[1]; 250 nM nocodazole, 18 hours
  mitotic arrest (phosphonucleolin): arrested in mitosis

## CC[C@H](CO)Nc1nc(NCc2ccccc2)c2ncn(C(C)C)c2n1 [roscovitine]
HeLaS3 cells; nocodazole 14 hours, then roscovitine
  exit from nocodazole-induced arrest (disappearance of phosphonucleolin): cells exited from the nocodazole-induced arrest; also recorded: suppresses only the accumulation of phosphonucleolin
HeLaS3 cells; nocodazole 14 hours, then roscovitine, 10 μM BrdU 6 hours
  BrdU incorporation after roscovitine: did not begin to incorporate BrdU
[1]
  prevention of nocodazole mitotic arrest: prevented this mitotic arrest

## O=C(CCCCC[C@@H]1NC(=O)[C@H]2CCCCN2C(=O)[C@H](Cc2ccccc2)NC(=O)[C@H](Cc2ccccc2)NC1=O)C1CO1 (stereo partly shown) [trapoxin, trapoxin A] (HELM PEPTIDE1{F.F.[O=C([C@H]1CCCCN1[*:1])[*:2]].[O=C(CCCCC[C@H](N[*:1])C(=O)[*:2])C1CO1]}$PEPTIDE1,PEPTIDE1,1:R1-4:R2$$$V2.0)
[2]
  BrdU incorporation: effectively prevent BrdU incorporation
[3]
  acetylation of histone H4: increase in the acetylation of histone H4

## CC(/C=C/C(=O)NO)=C\[C@@H](C)C(=O)c1ccc(N(C)C)cc1 [trichostatin, trichostatin A]
[3]
  acetylation of histone H4: increase in the acetylation of histone H4

## CuCl2 [Cu^2+]
[4]
  BrdU incorporation: inhibition of BrdU incorporation

## ICRF-193
[1]
  prevention of nocodazole mitotic arrest: prevented this mitotic arrest
